Test system: Transport facilitation protein genes
Assay: DNA chip mRNA expression in yeast, transport facilitation protein genes (Table 5)
Assay type: cell-based, Saccharomyces cerevisiae S288C
In short: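 First, S288C yeast grown in YPD at 25° C. are dosed in log phase with one toxicant (growth-inhibiting, not lethal) for 2 h. Next, total RNA is extracted and poly(A) mRNA isolated and reverse-transcribed with Cy3/Cy5-dUTP. Finally, whole-genome chip fluorescence is read relative to unexposed cells.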

S=C([S-])NCCNC(=S)[S-].[Zn+2] [(11), zinc N,N′-ethylenebis(dithiocarbamate)]
The level of expressed mRNA in the presence of chemical substance/The level of expressed mRNA in the absence of chemical substance (yeast gene YHL035C): 0.9
The level of expressed mRNA in the presence of chemical substance/The level of expressed mRNA in the absence of chemical substance (yeast gene YHL036W): 2.3
The level of expressed mRNA in the presence of chemical substance/The level of expressed mRNA in the absence of chemical substance (yeast gene YHL040C): 1.7
The level of expressed mRNA in the presence of chemical substance/The level of expressed mRNA in the absence of chemical substance (yeast gene YHL047C): 1.0
The level of expressed mRNA in the presence of chemical substance/The level of expressed mRNA in the absence of chemical substance (yeast gene YHR026W): 1.4
The level of expressed mRNA in the presence of chemical substance/The level of expressed mRNA in the absence of chemical substance (yeast gene YHR048W): 2.0
The level of expressed mRNA in the presence of chemical substance/The level of expressed mRNA in the absence of chemical substance (yeast gene YHR092C): 1.5
The level of expressed mRNA in the presence of chemical substance/The level of expressed mRNA in the absence of chemical substance (yeast gene YHR094C): 0.6
The level of expressed mRNA in the presence of chemical substance/The level of expressed mRNA in the absence of chemical substance (yeast gene YHR175W): 1.1
The level of expressed mRNA in the presence of chemical substance/The level of expressed mRNA in the absence of chemical substance (yeast gene YIL006W): 1.0
The level of expressed mRNA in the presence of chemical substance/The level of expressed mRNA in the absence of chemical substance (yeast gene YIL022W): 1.0
The level of expressed mRNA in the presence of chemical substance/The level of expressed mRNA in the absence of chemical substance (yeast gene YIL056W): 0.7
The level of expressed mRNA in the presence of chemical substance/The level of expressed mRNA in the absence of chemical substance (yeast gene YIL088C): 1.8
The level of expressed mRNA in the presence of chemical substance/The level of expressed mRNA in the absence of chemical substance (yeast gene YJL034W): 1.3
The level of expressed mRNA in the presence of chemical substance/The level of expressed mRNA in the absence of chemical substance (yeast gene YJL212C): 0.9
The level of expressed mRNA in the presence of chemical substance/The level of expressed mRNA in the absence of chemical substance (yeast gene YJL219W): 2.3
The level of expressed mRNA in the presence of chemical substance/The level of expressed mRNA in the absence of chemical substance (yeast gene YJR077C): 1.6
The level of expressed mRNA in the presence of chemical substance/The level of expressed mRNA in the absence of chemical substance (yeast gene YJR106W): 1.6
The level of expressed mRNA in the presence of chemical substance/The level of expressed mRNA in the absence of chemical substance (yeast gene YJR121W): 0.9
The level of expressed mRNA in the presence of chemical substance/The level of expressed mRNA in the absence of chemical substance (yeast gene YKL016C): 1.3
The level of expressed mRNA in the presence of chemical substance/The level of expressed mRNA in the absence of chemical substance (yeast gene YKL146W): 0.9
The level of expressed mRNA in the presence of chemical substance/The level of expressed mRNA in the absence of chemical substance (yeast gene YKR039W): 1.9
The level of expressed mRNA in the presence of chemical substance/The level of expressed mRNA in the absence of chemical substance (yeast gene YKR067W): 1.3
The level of expressed mRNA in the presence of chemical substance/The level of expressed mRNA in the absence of chemical substance (yeast gene YLL028W): 0.7
The level of expressed mRNA in the presence of chemical substance/The level of expressed mRNA in the absence of chemical substance (yeast gene YLL055W): 3.6
The level of expressed mRNA in the presence of chemical substance/The level of expressed mRNA in the absence of chemical substance (yeast gene YLR081W): 2.6
The level of expressed mRNA in the presence of chemical substance/The level of expressed mRNA in the absence of chemical substance (yeast gene YLR295C): 1.3
The level of expressed mRNA in the presence of chemical substance/The level of expressed mRNA in the absence of chemical substance (yeast gene YLR348C): 1.3
The level of expressed mRNA in the presence of chemical substance/The level of expressed mRNA in the absence of chemical substance (yeast gene YLR378C): 1.0
The level of expressed mRNA in the presence of chemical substance/The level of expressed mRNA in the absence of chemical substance (yeast gene YMR011W): 1.5
The level of expressed mRNA in the presence of chemical substance/The level of expressed mRNA in the absence of chemical substance (yeast gene YMR162C): 1.7
The level of expressed mRNA in the presence of chemical substance/The level of expressed mRNA in the absence of chemical substance (yeast gene YMR203W): 2.3
The level of expressed mRNA in the presence of chemical substance/The level of expressed mRNA in the absence of chemical substance (yeast gene YNL055C): 1.9
The level of expressed mRNA in the presence of chemical substance/The level of expressed mRNA in the absence of chemical substance (yeast gene YNL259C): 1.6
The level of expressed mRNA in the presence of chemical substance/The level of expressed mRNA in the absence of chemical substance (yeast gene YNR072W): 1.4
The level of expressed mRNA in the presence of chemical substance/The level of expressed mRNA in the absence of chemical substance (yeast gene YOL119C): 3.4
The level of expressed mRNA in the presence of chemical substance/The level of expressed mRNA in the absence of chemical substance (yeast gene YOL156W): 1.1
The level of expressed mRNA in the presence of chemical substance/The level of expressed mRNA in the absence of chemical substance (yeast gene YOL158C): 0.7
The level of expressed mRNA in the presence of chemical substance/The level of expressed mRNA in the absence of chemical substance (yeast gene YOL163W): 1.6
The level of expressed mRNA in the presence of chemical substance/The level of expressed mRNA in the absence of chemical substance (yeast gene YOR035C): 1.0
The level of expressed mRNA in the presence of chemical substance/The level of expressed mRNA in the absence of chemical substance (yeast gene YOR130C): 0.6
The level of expressed mRNA in the presence of chemical substance/The level of expressed mRNA in the absence of chemical substance (yeast gene YOR153W): 1.0
The level of expressed mRNA in the presence of chemical substance/The level of expressed mRNA in the absence of chemical substance (yeast gene YOR270C): 1.5
The level of expressed mRNA in the presence of chemical substance/The level of expressed mRNA in the absence of chemical substance (yeast gene YOR273C): 1.5
The level of expressed mRNA in the presence of chemical substance/The level of expressed mRNA in the absence of chemical substance (yeast gene YOR316C): 2.4
The level of expressed mRNA in the presence of chemical substance/The level of expressed mRNA in the absence of chemical substance (yeast gene YOR328W): 1.1
The level of expressed mRNA in the presence of chemical substance/The level of expressed mRNA in the absence of chemical substance (yeast gene YOR332W): 1.5
The level of expressed mRNA in the presence of chemical substance/The level of expressed mRNA in the absence of chemical substance (yeast gene YOR348C): 1.1
The level of expressed mRNA in the presence of chemical substance/The level of expressed mRNA in the absence of chemical substance (yeast gene YPL036W): 0.8
The level of expressed mRNA in the presence of chemical substance/The level of expressed mRNA in the absence of chemical substance (yeast gene YPL134C): 1.7
The level of expressed mRNA in the presence of chemical substance/The level of expressed mRNA in the absence of chemical substance (yeast gene YPL265W): 1.8
The level of expressed mRNA in the presence of chemical substance/The level of expressed mRNA in the absence of chemical substance (yeast gene YPL271W): 1.7
The level of expressed mRNA in the presence of chemical substance/The level of expressed mRNA in the absence of chemical substance (yeast gene YPR124W): 2.0
The level of expressed mRNA in the presence of chemical substance/The level of expressed mRNA in the absence of chemical substance (yeast gene YPR192W): 0.7
The level of expressed mRNA in the presence of chemical substance/The level of expressed mRNA in the absence of chemical substance (yeast gene YPR194C): 0.7

Source: patent US8192962B2, “Processes for detecting toxic substances” (Daikin Industries, Ltd., priority 2001, dated 2012)
